{
  "source": "patent US10421769B2",
  "about": "“Anticancer property studies of chiral palladium N-heterocyclic carbene complexes and process for preparation thereof” (Indian Institute of Technology Bombay, priority 2017, dated 2019)",
  "key": {"MCF-7 cells [1]": {"tested_on": "MCF-7 cells", "assay": "Sulforhodamine B assay, proliferation of MCF-7 cells", "assay_type": "cell-based, human", "settings": "for IC50: MCF-7 breast cancer cells, one cell cycle (48 h), SRB", "description": "(§1) The present invention further provides a Sulforhodamine B assay method for investigating the anti-cancer efficacies of the compounds of the present Pd—NHC series on MCF-7, HeLa, A549, B16-F10 and EMT6/AR1 cancer cell lines and also for a comparative study on normal skin cell line L929 and normal epithelial breast cells MCF10A. The said Sulforhodamine B assay is conducted as per reported method (Skehan et al., J. Natl. Cancer Inst. 1990, 82, 1107).\n(§2) Experiment: The anti-proliferative activity of the present palladium N-heterocyclic carbene complexes on two different cancer cell lines MCF-7 and HeLa is tested using Sulforhodamine B assay to reveal their anti-tumor properties. The evaluation of growth inhibition of these complexes is done from their IC50 values for the inhibition of cell growth. The IC50 values are compared with Cisplatin to determine any increase in efficacy.\nMethod: The effects of present series of palladium N-heterocyclic carbene complexes, such as compounds (1S,2S,5R)-(1-3)b and (1R,2R,5S)-(1-3)b; (1S,2S,5R)-(1, 3)c and (1R,2R,5S)-(1, 3)c on the proliferation of MCF-7 cells after one cell cycle are determined by Sulforhodamine B assay. In particular, 1×10^5 cells/mL are seeded in each well in 96-well plates for 24 h and then incubated without or with different concentrations of these complexes at 37° C. for one cell cycle (48 h). After incubation of cells with the complexes for one cell cycle, cell growth is stopped by the addition of 50% trichloroacetic acid and stained with 0.4% sulforhodamine B dissolved in 1% acetic acid. Unbound dye is removed by washing with 1% acetic acid, and the protein content is determined by measuring absorbance at 520 nm in a Bio-Rad model 680 microplate reader after extracting with 10 mM tris base. IC50 value is calculated as the concentration of the complex that inhibited the proliferation of cells by 50% relative to the untreated control cells. The anticancer activities of the present Pd—NHC compounds are graphically represented in accompanying FIG. 1.\n(§3) The data obtained is graphically represented in accompanying FIG. 2."}, "MCF-7 cells [2]": {"tested_on": "MCF-7 cells", "assay": "Mitotic index from DNA morphology (Hoechst 33258)", "assay_type": "cell-based, human", "description": "(§4) Experiment: MCF-7 cells (5 mL) were seeded in 60 mm cell culture dishes at a density of 1.5×10^5 cells/mL. The cells were incubated with 2 and 4 μM (1R,2R,5S)-1c for 36 h for cell cycle analysis. After the required incubation, cells were processed and analyzed by flow cytometry. Cell cycle data was analyzed using Flow Jo software. Cell cycle analysis and mitotic indices of MCF-7 cells in the absence and presence 2 and 4 μM (1R,2R,5S)-1c. Cell cycle analysis was done using flow cytometer after incubating the cells with PI. The data was analyzed using Flow Jo software. Data were average of three independent set of experiments with S.D (±). Mitotic index (percentage of cells in mitosis) was calculated based on DNA morphology of cells stained with Hoechst 33258. Data were average of three independent set of experiments with S.D (±). 1000 cells were scored in each set."}, "L929 cells": {"tested_on": "L929 cells", "assay": "Sulforhodamine B assay, normal skin cells L929 (selectivity)", "assay_type": "cell-based", "settings": "L929 IC50 against B16-F10 IC50", "description": "as §1"}, "HeLa cells": {"tested_on": "HeLa cells", "assay": "Sulforhodamine B assay, proliferation of HeLa cells", "assay_type": "cell-based, human", "settings": "for IC50: HeLa cervical cancer cells, 24 h, SRB", "description": "as §1, §2\nThe seeded cells in 96-well plates are incubated with the complex for 24 h and the assay is performed.\nas §3"}, "[3]": {"tested_on": "intracellular ROS in MCF-7 cells", "assay": "Reactive oxygen species (ROS) assay using H2DCFDA, flow cytometry", "assay_type": "cell-based, human", "settings": "24 h", "description": "Experiment: Reactive oxygen species (ROS) production in cells when treated with (1R,2R,5S)-1c, was estimated by ROS assay using 2′,7′-dichlorodihydrofluorescein diacetate (H2DCFDA). MCF-7 cells (5 mL) were seeded in 60 mm cell culture dishes at a density of 1.5×10^5 cells/mL. After cell attachment, they were incubated with 4 and 8 μM (1R,2R,5S)-1c for 24 h. Cells treated with 30 μM hydrogen peroxide was used as a positive control. Following 24 h of incubation, the cells were processed and analyzed using flow cytometry. The percentage of DCFH-DA positive MCF-7 cells in the absence and presence 4 and 8 μM (1R,2R,5S)-1c was determined by flow cytometry. 30 μM H2O2 was used as a positive control. Data are average of three independent set of experiments and ±indicates S.D."}, "p53 in MCF-7 cells": {"tested_on": "p53 in MCF-7 cells", "assay": "Immunostaining for nuclear accumulation of p53", "assay_type": "cell-based, human", "settings": "MCF-7, 4 and 8 μM, 36 h", "description": "(§5) Experiment: MCF-7 (5×10^4 cells/well) cells were seeded on glass cover slip in a 24-well cell culture plate. After the cells were attached, they were incubated with 4 and 8 μM (1R,2R,5S)-1c for 36 h, fixed with 3.7% formaldehyde and processed for immunostaining. After fixing, cells were blocked with 2% BSA and incubated with anti-p53 IgG (1:300) and anti-p21 IgG (1:300) for 2 h at 37° C. Primary antibody incubation was followed by Alexa Fluor 568-conjugated sheep anti-mouse secondary IgG (1:400) incubation for 1 h at 37° C. Hoechst 33258 was used to stain the DNA. Immunofluorescence images were captured using Eclipse TE 2000U microscope (Nikon, Tokyo, Japan) at 40× magnification and processed by Image-Pro Plus software (Media Cybernetics, Silver Spring, Md.). To determine the percentage of cells with nuclear accumulation of p53 and p21, 1000 cells were scored in each case. The experiment was repeated thrice."}, "MCF-7 cells [4]": {"tested_on": "MCF-7 cells", "assay": "Live dead assay by flow cytometry using propidium iodide", "assay_type": "cell-based, human", "settings": "for Dead % / Live %: 48 h", "description": "MCF-7 cells (5 mL) were seeded in 60 mm cell culture dishes at a density of 1.5×10^5 cells/mL. Cells were incubated with 4 and 8 μM (1R,2R,5S)-1c for 48 h for live dead assay. After the required incubation, cells were processed and analyzed by flow cytometry. Percentage of live and dead MCF-7 cells in the absence and presence of 4 and 8 μM (1R,2R,5S)-1c and 4 μM cisplatin was determined by flow cytometry using propidium iodide (PI)."}, "A549 cells": {"tested_on": "A549 cells", "assay": "Sulforhodamine B assay, A549 lung cancer cells", "assay_type": "cell-based, human", "settings": "SRB", "description": "as §1"}, "MCF-7 cells [5]": {"tested_on": "MCF-7 cells", "assay": "Cell cycle analysis by flow cytometry (PI)", "assay_type": "cell-based, human", "settings": "36 h", "description": "as §4"}, "p21 in MCF-7 cells": {"tested_on": "p21 in MCF-7 cells", "assay": "Immunostaining for nuclear accumulation of p21", "assay_type": "cell-based, human", "settings": "MCF-7, 4 and 8 μM, 36 h", "description": "as §5"}},
  "note": "Entries after “also recorded” stand apart in the source; their conditions may differ. Where two headings read alike, the source gives them in different places.",
  "data": [
    {"substance": "trans-[1-(1R)-menthyl-4-(ethyl)-1,2,4-triazol-5-ylidene]2Pd(OCOCF3)2 [(1R,2R,5S)-1c]", "values": [
      {"measurement": "IC50 of Cisplatin against MCF-7 as multiple of IC50 of the complex", "setting": "MCF-7 cells [1]; MCF-7", "value": 27, "unit": "times"},
      {"measurement": "IC50", "setting": "MCF-7 cells [1]; read-out: IC50 (μM), MCF-7", "value": "0.55 ± 0.02", "unit": "µM"},
      {"measurement": "IC50", "setting": "MCF-7 cells [1]; unit nM printed in cell or sentence, read-out: IC50, MCF-7 (values given in nM)", "value": "0.55 ± 0.02", "unit": "µM"},
      {"measurement": "Mitotic Index (percentage of cells in mitosis)", "setting": "MCF-7 cells [2]; MCF-7, 2 μM", "value": "3 ± 1", "unit": "%"},
      {"measurement": "Mitotic Index (percentage of cells in mitosis)", "setting": "MCF-7 cells [2]; MCF-7, 4 μM", "value": "3.2 ± 1", "unit": "%"},
      {"measurement": "Arrest at mitosis (in words)", "setting": "MCF-7 cells [2]; MCF-7, Hoechst 33258 DNA morphology", "value": "did not arrest cells at mitosis"},
      {"measurement": "times more selective towards the cancer cells (B16-F10 vs L929)", "setting": "L929 cells", "value": "around 8.1 times"},
      {"measurement": "IC50 of Cisplatin against HeLa as multiple of IC50 of the complex", "setting": "HeLa cells; HeLa", "value": "around 4 times"},
      {"measurement": "IC50", "setting": "HeLa cells; listed as drawing 41", "value": "2.3 ± 1", "unit": "µM"},
      {"measurement": "IC50", "setting": "HeLa cells; listed as drawing 48", "value": "2.3 ± 1", "unit": "µM"},
      {"measurement": "% of DCFH-DA positive cells", "setting": "[3]; MCF-7, 4 μM", "value": "49 ± 11", "unit": "%"},
      {"measurement": "% of DCFH-DA positive cells", "setting": "[3]; MCF-7, 8 μM", "value": "74 ± 1", "unit": "%"},
      {"measurement": "Intracellular ROS generation (in words)", "setting": "[3]; MCF-7, 4 and 8 μM", "value": "leads ROS production in cells; also recorded: ROS is generated in MCF-7 cells"},
      {"measurement": "Nuclear accumulation of p53 (in words)", "setting": "p53 in MCF-7 cells", "value": "leads to the nuclear accumulation of p53"},
      {"measurement": "Cell death (in words)", "setting": "MCF-7 cells [4]; MCF-7", "value": "leads to cell death in MCF-7 cells"},
      {"measurement": "Dead %", "setting": "MCF-7 cells [4]; MCF-7, 4 μM", "value": "41 ± 2", "unit": "%"},
      {"measurement": "Live %", "setting": "MCF-7 cells [4]; MCF-7, 4 μM", "value": "59 ± 2", "unit": "%"},
      {"measurement": "Dead %", "setting": "MCF-7 cells [4]; MCF-7, 8 μM", "value": "90 ± 1", "unit": "%"},
      {"measurement": "Live %", "setting": "MCF-7 cells [4]; MCF-7, 8 μM", "value": "10 ± 1", "unit": "%"},
      {"measurement": "IC50", "setting": "A549 cells", "value": "5.7 ± 1.6", "unit": "µM"},
      {"measurement": "% of cells in different phases of cell cycle: G1", "setting": "MCF-7 cells [5]; MCF-7, 2 μM", "value": "30 ± 2", "unit": "%"},
      {"measurement": "% of cells in different phases of cell cycle: G2/M", "setting": "MCF-7 cells [5]; MCF-7, 2 μM", "value": "35 ± 2", "unit": "%"},
      {"measurement": "% of cells in different phases of cell cycle: S", "setting": "MCF-7 cells [5]; MCF-7, 2 μM", "value": "31 ± 2", "unit": "%"},
      {"measurement": "% of cells in different phases of cell cycle: G1", "setting": "MCF-7 cells [5]; MCF-7, 4 μM", "value": "18 ± 2", "unit": "%"},
      {"measurement": "% of cells in different phases of cell cycle: G2/M", "setting": "MCF-7 cells [5]; MCF-7, 4 μM", "value": "50 ± 2", "unit": "%"},
      {"measurement": "% of cells in different phases of cell cycle: S", "setting": "MCF-7 cells [5]; MCF-7, 4 μM", "value": "32 ± 3", "unit": "%"},
      {"measurement": "Cell cycle block (in words)", "setting": "MCF-7 cells [5]; MCF-7, 2 and 4 μM", "value": "blocks MCF-7 cells at the G2 phase; also recorded: blocked cells at the G2/M phase"},
      {"measurement": "Nuclear accumulation of p21 (in words)", "setting": "p21 in MCF-7 cells", "value": "nuclear accumulation of p21; also recorded: transcriptionally activates p21"}
    ]}
  ]
}
